Laboratory results published in the CATMoS acute toxicity set (Mansouri et al. 2021).

Assay: GHS categories as the set defines them, by LD50: 1 up to 5, 2 up to 50, 3 up to 300, 4 up to 2000, 5 above 2000 mg/kg
Details: rat; in vivo; po

Row | SMILES | GHS category
1 | CC(=O)OC(C)Cc1ccccc1 (stereo unspecified) | 5
2 | C=CC(=C)CCC=C(C)CCC=C(C)C=O | 5
3 | CCCCCCCCCCN(C)C | 5
4 | CCCCCCCCOC(=O)c1ccc(C(=O)OCCCCCCCC)c(C(=O)OCCCCCCCC)c1 | 5
5 | Nc1nc(=O)[nH]cc1F | 5
6 | CCCCCCCCCC(OC)OC | 5
7 | COC(=O)c1cc(Cl)ccc1OC(N)=O | 5
8 | Cc1cccc(N(C)C(=S)Oc2ccc3ccccc3c2)c1 | 5
9 | COc1cc2c(cc1OC)C(c1ccccc1F)N(c1ccccc1)CC2 (stereo unspecified) | 4
10 | NCC1CCC(N)C(OC2C(N)CC(N)C(OC3OC(CO)C(O)C(N)C3O)C2O)O1 (stereo unspecified) | 5
11 | C=C(C)C(=O)OCC(CC)CCCC (stereo unspecified) | 5
12 | CCOP(=O)(CN(CCO)CCO)OCC | 5
13 | CC(C)(C)c1ccc2oc(-c3ccc(-c4nc5cc(C(C)(C)C)ccc5o4)s3)nc2c1 | 5
14 | CCCCCCCCCCCCCCCC(=O)NCC(=O)O | 5
15 | C[C@@H](O)[C@H]1C(=O)N2C(C(=O)O)=C(SCCNC=N)C[C@H]12 | 5
16 | CCC(=O)OC1C=CC2C3CCC(C3)C12 (stereo unspecified) | 5
17 | CC(C#N)c1cccc(C(=O)Cl)c1 (stereo unspecified) | 5
18 | CC(C)OC(=O)CCC/C=C\C[C@@H]1[C@@H](CC[C@@H](O)CCc2ccccc2)[C@H](O)C[C@@H]1O | 1
19 | O=S(=O)(O)Oc1ccc(C(c2ccc(O)cc2)c2ccccn2)cc1 (stereo unspecified) | 5

Row | SMILES | GHS category
20 | N#CNC(=N)NCCCCCCNC(=N)NC#N | 5
21 | C[Si]1(C)O[Si](C)(c2ccccc2)O[Si](C)(C)O[Si](C)(c2ccccc2)O1 (stereo unspecified) | 5
22 | N#Cc1c[nH]cc1-c1cccc2c1OC(F)(F)O2 | 5
23 | CCc1oc2ccccc2c1C(=O)c1ccc(O)cc1 | 5
24 | NC(=O)c1ccc[n+]([C@@H]2O[C@H](COP(=O)([O-])OP(=O)(O)OC[C@H]3O[C@@H](n4cnc5c(N)ncnc54)[C@H](O)[C@@H]3O)[C@@H](O)[C@H]2O)c1 | 5
25 | O=[N+]([O-])c1ccc2c(c1)COP(=S)(N1CCOCC1)O2 (stereo unspecified) | 3
26 | CC(C)(C)C1CCC(CC2=C(O)C(=O)c3ccccc3C2=O)CC1 (stereo unspecified) | 5
27 | CC1Oc2cc(C(=O)C=Cc3ccc(Cl)cc3)ccc2N(C)C1=O (stereo unspecified) | 5
28 | Cn1nnnc1SCCCC(=O)NCc1ccco1 | 4
29 | CC(=O)Oc1ccccc1C(=O)Nc1ncc([N+](=O)[O-])s1 | 5
30 | FC(F)(F)c1cccc(C(F)(F)F)c1 | 5
31 | CC(C)(C)C1=CC(=Cc2ccccc2)C=C(C(C)(C)C)C1=O | 5
32 | CCC(C(=O)Oc1ccccc1OC)c1ccc(-c2ccccc2)cc1 (stereo unspecified) | 5
33 | C[C@H]1CO[C@@](Cn2cncn2)(c2cc3cc(Cl)cc(Cl)c3o2)O1 | 4
34 | CC1(C(O)CO)OC(c2ccc(Cl)cc2)OC2COC(c3ccc(Cl)cc3)OC21 (stereo unspecified) | 5
35 | Cc1cccc(OC(=O)c2cc(Cl)ccc2OC(N)=O)c1 | 5
36 | CNC(=O)C(=NNc1ccccc1)C(C)=O | 5
37 | CNC(=O)c1cnc2cccc(C)n2c1=O | 3
38 | O=c1[nH]cnc2c1ncn2[C@H]1CC[C@@H](CO)O1 | 5

Row | SMILES | GHS category
39 | OC1(c2ccc(Cl)c(Cl)c2)c2ccccc2C2=NCCCN21 (stereo unspecified) | 4
40 | COCCCNc1nc(NC(C)C)nc(SC)n1 | 5
41 | Cc1cccc2ncc(C(=O)NC3CCCCC3)c(=O)n12 | 3
42 | CNC(=O)Oc1cccc2c1OCO2 | 3
43 | CC(C)COC(=O)OCN1C(=O)CN(CCN2CC(=O)N(COC(=O)OCC(C)C)C(=O)C2)CC1=O | 5
44 | Cc1cc(Cl)ccc1OC(C)C(=O)Nc1ccccc1 (stereo unspecified) | 5
45 | CCOC(=O)CCNc1ccccn1 | 5
46 | CCOP(=O)(OCC)c1ccccc1 | 4
47 | CC(C)=CCCC(C)=CC1OCCO1 | 5
48 | CC(SC(=O)c1cccs1)C(=O)NC1CCSC1=O (stereo unspecified) | 5
49 | Nc1cc(S(=O)(=O)O)c2cc(S(=O)(=O)O)cc(S(=O)(=O)O)c2c1 | 5
50 | O=c1[nH]c(CCl)nc2sc3c(c12)CCCC3 | 5
51 | COc1ccc2c(c1)CCN(c1ccccc1)C2c1cccc(C(F)(F)F)c1 (stereo unspecified) | 4
52 | Cc1cc(C)c(Nc2ccc(Nc3c(C)cc(C)cc3C)c3c2C(=O)c2ccccc2C3=O)c(C)c1 | 5
53 | CC1Oc2cc(C(=O)c3ccccc3)ccc2NC1=O (stereo unspecified) | 5
54 | CCCCCCNC(=O)c1cnc2cccc(C)n2c1=O | 3
55 | C=C1c2cccc(O)c2C(=O)C2=C(O)[C@]3(O)C(=O)C(C(N)=O)=C(O)[C@@H](N(C)C)[C@@H]3[C@@H](O)[C@H]12 | 5
56 | CCC1OC(=O)C(C)C(OC2CC(C)(OC)C(O)C(C)O2)C(C)C(OC2OC(C)CC(N(C)C)C2O)C(C)(O)CC(C)C(=O)C(C)C(O)C1(C)O (stereo unspecified) | 5
